Laboratory results published in ChEMBL document CHEMBL4339211 (Bioorg Med Chem, 2019).

How the values were obtained:
Format in all cases: functional, cell-based
[1] = target: T1, D(1A) dopamine receptor (Homo sapiens, UniProt P21728); assay: Antagonist activity at D1 receptor (unknown origin) expressed in CHOK1 cells assessed as inhibition of SKF38393-induced cAMP accumulation measured after 30 mins
[2] = target: T2, D(2) dopamine receptor (Homo sapiens, UniProt P14416); assay: Antagonist activity at D2 receptor (unknown origin) expressed in CHOK1 cells assessed as inhibition of dopamine-induced calcium flux preincubated for 60 mins at 37 degC followed by 15 mins incubation under room temperature and subsequent dopamine addition measured after 20 secs for 100 secs by calcium-4 dye based FLIPR assay
T2 sequence (P14416 whole entry): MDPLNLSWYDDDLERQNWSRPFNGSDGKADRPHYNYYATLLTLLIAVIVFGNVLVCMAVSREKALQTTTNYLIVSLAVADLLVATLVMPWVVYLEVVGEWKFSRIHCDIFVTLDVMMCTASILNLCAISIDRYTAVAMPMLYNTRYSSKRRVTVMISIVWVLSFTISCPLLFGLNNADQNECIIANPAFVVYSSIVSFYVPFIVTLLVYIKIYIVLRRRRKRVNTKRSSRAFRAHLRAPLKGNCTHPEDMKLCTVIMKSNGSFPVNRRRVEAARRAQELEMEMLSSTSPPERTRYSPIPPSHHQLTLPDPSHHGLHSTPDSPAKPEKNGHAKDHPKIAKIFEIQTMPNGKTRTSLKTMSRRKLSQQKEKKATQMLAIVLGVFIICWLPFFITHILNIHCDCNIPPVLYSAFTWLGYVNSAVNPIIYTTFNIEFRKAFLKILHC

[3] = target: T1, D(1A) dopamine receptor; assay: Agonist activity at D1 receptor (unknown origin) expressed in CHOK1 cells assessed as increase in cAMP accumulation at 10 uM measured after 30 mins
[4] = target: T2, D(2) dopamine receptor; assay: Agonist activity at D2 receptor (unknown origin) expressed in CHOK1 cells assessed as increase in calcium flux at 10 uM incubated for 60 mins at 37 degC followed by 15 mins incubation under room temperature measured after 20 secs for 100 secs by calcium-4 dye based FLIPR assay relative to control

T1 sequence (P21728 whole entry): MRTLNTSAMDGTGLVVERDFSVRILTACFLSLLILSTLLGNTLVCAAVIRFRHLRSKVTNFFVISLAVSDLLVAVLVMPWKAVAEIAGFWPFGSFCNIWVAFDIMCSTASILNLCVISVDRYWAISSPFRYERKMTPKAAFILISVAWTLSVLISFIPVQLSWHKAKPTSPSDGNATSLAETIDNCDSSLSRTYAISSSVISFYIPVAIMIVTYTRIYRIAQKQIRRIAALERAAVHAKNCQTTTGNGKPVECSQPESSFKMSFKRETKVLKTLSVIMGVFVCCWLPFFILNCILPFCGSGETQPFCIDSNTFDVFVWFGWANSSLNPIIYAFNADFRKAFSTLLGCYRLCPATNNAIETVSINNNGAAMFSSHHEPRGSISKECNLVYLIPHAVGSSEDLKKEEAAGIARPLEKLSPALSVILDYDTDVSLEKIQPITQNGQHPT

Row | Structure (SMILES) | IC50 [1] [nM] | IC50 [2] [nM] | Activity [3] [%] | Activity [4] [%]
1 | COc1cc(/C=C/C(=O)Oc2c(OC)ccc3c2CN2CCc4cc5c(cc4C2C3)OCO5)ccc1OC(C)=O (racemic) | > 10000 | 7960 | -3.69 | 2.97
2 | Oc1cccc2c1CC1c3cc4c(cc3CCN1C2)OCO4 (racemic) | 1030 | 190 | 1.8 | 2.22
3 | COc1cc2c(cc1OC)C1Cc3c(cc(OC)c(O)c3OC)CN1CC2 (racemic) | > 10000 | 6360 | -4.17 | 3.74
4 | COc1cc2c(cc1O)C1Cc3cc(OC)c(OC)cc3CN1CC2 (racemic) | > 10000 | 3580 | 24.4 | 3.67
5 | COc1cc2c(cc1O)CC1c3cc(OC)c(OC)cc3CCN1C2 (racemic) | 670 | 2590 | -5.16 | 3.35
6 | Oc1ccc2c(c1)CN1CCc3cc4c(cc3C1C2)OCO4 (racemic) | 1420 | 500 | -4.41 | 2.17
7 | COc1cc2c(cc1O)CC1c3cc4c(cc3CCN1C2)OCO4 (racemic) | > 10000 | 4940 | -3.7 | 3.81
8 | COc1cc2c(cc1OC)[C@@H]1Cc3ccc(OC)c(OC)c3CN1CC2 [TETRAHYDROPALMATINE] | 1630 | 450 | -7.43 | 3.51
9 | COc1cc2c(cc1OC)C1Cc3c(cc(O)c(OC)c3OC)CN1CC2 (racemic) | > 10000 | 8810 | 5.95 | 6.88
10 | COc1cc2c(cc1OC)C1Cc3ccc(O)cc3CN1CC2 (racemic) | 6510 | 1530 | -3.91 | 2.39
11 | COc1ccc2c(c1O[C@@H]1O[C@H](CO)[C@@H](O)[C@H](O)[C@H]1O)CN1CCc3cc4c(cc3[C@H]1C2)OCO4 | > 10000 | > 10000 | -7.46 | 3.17
12 | c1ccc(COc2cccc3c2CC2c4cc5c(cc4CCN2C3)OCO5)cc1 (racemic) | > 10000 | > 10000 | 4.48 | 2.5
13 | COc1cc2c(c(OC)c1O)CC1c3cc4c(cc3CCN1C2)OCO4 (racemic) | 7420 | 1080 | -5.75 | 1.29
14 | COc1cc2c(cc1OC)C1Cc3ccc(OC)c(O)c3CN1CC2 (racemic) | 410 | 3110 | -4.32 | 5.52
15 | COc1ccc2c(c1O)CN1CCc3cc(O)c(O)cc3C1C2 (racemic) | 390 | 76 | -5.41 | 4.27
16 | COc1ccc2c(c1O[C@@H]1O[C@H](CO)[C@@H](O)[C@H](O)[C@H]1O)CN1CCc3cc4c(cc3[C@@H]1C2)OCO4 | > 10000 | > 10000 | -1.05 | 2.96
17 | COc1ccc2c(c1OC)CN1CCc3cc(O)c(O)cc3C1C2 (racemic) | 630 | 40 | -3.17 | 2.53
18 | COc1ccc2c(c1OC(C)=O)CN1CCc3cc4c(cc3C1C2)OCO4 (racemic) | 1080 | 420 | 0 | 4.5
